Measured values published in PubChem BioAssay (NCI).
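Dose response: 5 concentrations. Exposure: 48 h. Format: 96-well plates. Endpoint: linear interpolation; highest concentration if not reached. Here, GI50 denotes the concentration required for 50% inhibition of growth. TGI: total growth inhibition.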

What was measured:
Test in all cases: NCI tumour cell line growth inhibition, 48 h
A498 renal = test system: A498 renal
TK-10 renal = test system: TK-10 renal
SK-MEL-5 melanoma = test system: SK-MEL-5 melanoma
ACHN renal = test system: ACHN renal
MALME-3M melanoma = test system: MALME-3M melanoma
HCT-15 colon = test system: HCT-15 colon
K-562 leukemia = test system: K-562 leukemia
OVCAR-4 ovarian = test system: OVCAR-4 ovarian
MCF7 breast = test system: MCF7 breast
SK-MEL-28 melanoma = test system: SK-MEL-28 melanoma
MOLT-4 leukemia = test system: MOLT-4 leukemia
LOX IMVI melanoma = test system: LOX IMVI melanoma

| Structure (SMILES) | TGI (A498 renal) | TGI (TK-10 renal) | TGI (SK-MEL-5 melanoma) | TGI (ACHN renal) | TGI (MALME-3M melanoma) | TGI (HCT-15 colon) | TGI (K-562 leukemia) | TGI (OVCAR-4 ovarian) | TGI (MCF7 breast) | TGI (SK-MEL-28 melanoma) | TGI (MOLT-4 leukemia) | TGI (LOX IMVI melanoma) | GI50 (MOLT-4 leukemia) |
| --- | --- | --- | --- | --- | --- | --- | --- | --- | --- | --- | --- | --- | --- |
| COc1ccc(NC(=O)NNS(=O)(=O)c2ccc(C)cc2)cc1 | > 100 µM | > 100 µM | > 100 µM | > 100 µM | > 100 µM | > 100 µM | > 100 µM | > 100 µM | > 100 µM | > 100 µM | > 100 µM |  |  |
| CC[C@]1(Cc2ccc(OC)c(OC)c2)C=[N+]([O-])O[C@H](OCc2ccccc2)[C@@H]1OC(C)=O | > 100 µM | > 100 µM | > 100 µM | > 100 µM | 52.9 µM | > 100 µM | 56.8 µM | 95.6 µM | > 100 µM | 84.6 µM | 27.3 µM | 39.5 µM |  |
| COC(=O)CNC(=O)CSc1nnc(COc2ccc(Cl)cc2)n1-c1ccccc1 | > 100 µM | 46.3 µM |  | 55 µM | > 100 µM | > 100 µM | > 100 µM | > 100 µM | > 100 µM | 81.3 µM | > 100 µM | > 100 µM |  |
| CCOc1nc2sc3c(c2c(=O)n1CCSSCCn1c(OCC)nc2sc4c(c2c1=O)CCCC4)CCCC3 | > 100 µM | > 100 µM | > 100 µM | > 100 µM | > 100 µM | > 100 µM | > 100 µM | > 100 µM | > 100 µM | > 100 µM | > 100 µM | > 100 µM |  |
| COC1C(=O)N(SC)C1c1ccccc1Cl (centres undefined) | > 100 µM | > 100 µM | > 100 µM | 33.9 µM | 44.4 µM | 45.1 µM | 66.2 µM | 30.3 µM | 43 µM | > 100 µM | 31.6 µM | > 100 µM |  |
| COc1cc(/C=N/n2c(C)n[nH]c2=O)cc(OC)c1OC | > 100 µM |  |  | > 100 µM | > 100 µM | > 100 µM | > 100 µM | > 100 µM | > 100 µM | > 100 µM | > 100 µM |  |  |
| Cc1ccc(S(=O)(=O)NNC(=O)Nc2ccc([N+](=O)[O-])cc2)cc1 | > 100 µM | > 100 µM | > 100 µM | > 100 µM | > 100 µM | > 100 µM | > 100 µM | 89.4 µM | > 100 µM | > 100 µM | > 100 µM | > 100 µM |  |
| COc1cc(C(=O)OC2CC34CCNC35CC(OC5(OC)C2O)c2cc3c(cc24)OCO3)ccc1O (centres undefined) | > 100 µM | > 100 µM | > 100 µM | > 100 µM | > 100 µM | > 100 µM | > 100 µM | > 100 µM | > 100 µM | > 100 µM | > 100 µM | > 100 µM |  |
| Nc1ncc2c(n1)-c1ccccc1OC2N1CCOCC1 (centres undefined) |  | > 100 µM | > 100 µM | > 100 µM | > 100 µM | > 100 µM | > 100 µM | > 100 µM | > 100 µM | > 100 µM | > 100 µM | > 100 µM |  |
| Cn1c(N)c(/C=C/C(=O)Oc2ccccc2)c(=O)n(C)c1=O | > 100 µM | > 100 µM | > 100 µM | > 100 µM | > 100 µM | > 100 µM | > 100 µM | > 100 µM | > 100 µM | > 100 µM | > 100 µM | > 100 µM |  |
| Cc1ccc2c(c1)CC1(C2)Cc2ccc(C)cc2C1=O (centres undefined) | > 100 µM | > 100 µM | 26 µM | > 100 µM | 43.8 µM | 79.5 µM | > 100 µM | > 100 µM | 89 µM | > 100 µM | 45.7 µM | 36.4 µM |  |
| Cc1cc(S(=O)(=O)NC2=NCC(C)(C)CN2)c(S)cc1Cl | > 100 µM | > 100 µM | 33.7 µM | 71.6 µM | > 100 µM | > 100 µM | 80.5 µM | 64.5 µM | > 100 µM | > 100 µM |  | 31.2 µM |  |
| COc1cc(OC)nc(-n2c(N)c(C(=O)O)c3ccc([N+](=O)[O-])cc3c2=O)n1 | > 100 µM |  | > 100 µM | > 100 µM | > 100 µM | > 100 µM | > 100 µM | > 100 µM | > 100 µM | > 100 µM | > 100 µM | > 100 µM |  |
| COC(=O)C1=COC2OC3CC1C2C(C)O3 (centres undefined) | > 100 µM | > 100 µM | > 100 µM | > 100 µM | > 100 µM | > 100 µM |  | > 100 µM | > 100 µM | > 100 µM | > 100 µM | > 100 µM |  |
| CC(=O)OC(C)c1cc2c(s1)C(=O)c1ccsc1C2=O (centres undefined) | 3.32 µM | 2.49 µM | 0.0743 µM | 0.31 µM | 0.246 µM | 0.272 µM | 0.473 µM | 1.93 µM | 1.24 µM |  | 0.684 µM | 0.119 µM |  |
| COC1OC(Cn2cc([N+](=O)[O-])nc2C)C(O)C(O)C1O (centres undefined) | > 100 µM |  | > 100 µM | > 100 µM | > 100 µM | > 100 µM | > 100 µM | > 100 µM | > 100 µM | > 100 µM | > 100 µM |  |  |
| Cc1nn(C(=O)c2ccc(Cl)cc2)c2c1C(c1ccc(Cl)cc1)SC(N)=N2 (centres undefined) |  | > 10 µM | > 10 µM | > 10 µM | > 10 µM | > 10 µM | > 10 µM | > 10 µM | > 10 µM | > 10 µM | > 10 µM | > 10 µM |  |
| O=c1[nH]c(=O)n(C2CC(O)C(COP(=O)(OCC(Cl)(Cl)Cl)OCC(Cl)(Cl)Cl)O2)cc1F (centres undefined) |  | > 100 µM | > 100 µM | > 100 µM | > 100 µM | > 100 µM | > 100 µM | > 100 µM | > 100 µM | > 100 µM | > 100 µM | > 100 µM |  |
| N[C@H]1CCN(c2c(F)cc3c(=O)c(C(=O)O)cn4c3c2Oc2c-4ccc3c2ccc2ccccc23)C1 | > 100 µM |  | > 100 µM | > 24.4 µM | > 100 µM | > 51.3 µM |  | > 33.2 µM | > 100 µM | > 100 µM | > 100 µM | 22.9 µM | 0.266 µM |
| CC(C)CC1NC(=O)CCC(NC(=O)C(Cc2ccc(O)cc2)NC(=O)OCc2ccccc2)C(=O)NC(Cc2ccccc2)C(=O)NC(Cc2ccccc2)NC1=O (centres undefined) |  | > 100 µM | > 100 µM | > 100 µM | > 100 µM | > 100 µM | > 100 µM | > 100 µM | > 100 µM | > 100 µM | > 100 µM | > 100 µM |  |
